Measured values as given in patent US20240100081A1, “COMPOSITIONS AND METHODS FOR TREATING AGE-RELATED MACULAR DEGENERATION AND GEOGRAPHIC ATROPHY” (University of Virginia Patent Foundation, priority 2017, published 2024).

How the values were obtained:
IL-18 = IL-18 secretion ELISA, mouse RPE cells; assay type: cell-based; settings: Casp11−/− and Mb21d1−/− mouse RPE cells; LPS-primed, MSU 250 μg/ml
Procedure: Secreted human and mouse interferon-β and IL-18 in the media were detected using the ELISA kits (mouse IFN-β, R&D Systems Cat #42400-1; mouse IL-18, R&D Systems Cat #7625; human IFN-β, R&D Systems Cat #41410; human IL-18, R&D systems Cat #DY318-05) according to the manufacturer's instructions. Primary mouse cells cultured as above. WT, Gsdmd^−/−, Casp11^−/−, and Mb21d1^−/− mouse RPE cells were seeded at a density of 250,000 cells/well in a 12-well plate. When confluency reached 60-70%, cells were transfected with 20 pmol of in vitro transcribed Alu RNA or mock using Lipofectamine 2000 reagent (Life Technologies, Carlsbad, CA) following the manufacturer protocol. Media was collected to detect secreted cytokine content at 8 to 24 h post-transfection. For examining the induction of IL-18 secretion by monosodium urate (MSU) crystals (Invivogen Cat #tlrl-msu), mouse RPE cells were primed with LPS (500 ng/ml) for 6 h and exposed to MSU (250 μg/ml) for 16 h, and media were collected to detect secreted cytokine.

RPE [1] = settings: earlier demonstration (refs 2, 21); cited from earlier work
caspase-4 = test: Caspase-4 activation (p30) immunoblot in human RPE cells; assay type: cell-based; settings: lentiviral shRNA
Procedure: (§1) Cell and tissue lysates prepared in RIPA buffer where homogenized by sonication. Protein concentration was determined using Pierce BCA Protein Assay Kit (Thermo Fisher Scientific Inc.). Equal quantity of protein (10-50 μg) prepared in Laemmli buffer were resolved by SDS-PAGE on NOVEX® Tris-Glycine Gels (Invitrogen), and transferred onto Immobilon-FL PVDF membranes (Millipore). The transferred membranes were blocked in ODYSSEY® Blocking Buffer (PBS) or 5% nonfat dry skim milk for 1 hour at RT and then incubated with primary antibody at 4° C. overnight. The immunoreactive bands were visualized with help of species specific secondary antibodies conjugated with IRDYE® or HRP. The blot image were either captured on ODYSSEY® imaging systems or on an autoradiography film. […]

IFNB mRNA = IFNB mRNA real-time PCR, human RPE cells; assay type: cell-based; settings: lentiviral shRNA
Procedure: Real-time PCR Total RNA purified from cell using Trizol reagent (Invitrogen) following manufacturer's recommendation was DNase treated and reverse transcribed using […]® Reverse Transcription kit (QIAGEN). The RT products (cDNA) were amplified by real-time quantitative PCR (Applied Biosystems 7900 HT Fast Real-Time PCR system) with Power SYBR green Master Mix. Relative gene expression was determined by 2^−ΔΔCt t method using 18S rRNA or GAPDH as internal control. Primers were used as described in the provisional patent application from which this application depends and as in Kerur et al., 2018, Nature, the publication resulting from the data in the provisional application. The primers were for human IFNB1, CASP4, DICER, cGAS, 18s rRNA, mitochondrial DNA, GAPDH, and GSDMD, MIP1α, IL6, IL8, and mouse Ifnb1, Gapdh, 18s rRNA, and mitochondrial DNA.
Lentivirus articles were either produced by the University of Kentucky Viral Production Core facilities or in house. Lentivirus vector plasmids expressing scrambled sequences or shRNA sequences targeting human caspase-4 and cGAS were purchased (MISSION®shRNA, Sigma-Aldrich) to produce lentiviral particles. Human RPE cells at passage 3 were incubated with lentiviral particles at multiplicity of infection (MOI) of 5 overnight in regular growth media containing polybrene (4 μg/ml). […] Knockdown of the target proteins was determined by immunoblotting.

STAT2 = STAT2 phosphorylation immunoblot, human RPE cells; assay type: cell-based; settings: lentiviral shRNA
Procedure: as §1

caspase-1 = test: Caspase-1 activation (p20) immunoblot in human RPE cells; assay type: cell-based; settings: lentiviral shRNA
Procedure: as §1
Lentivirus articles were either produced by the University of Kentucky Viral Production Core facilities or in house. […] Knockdown of the target proteins was determined by immunoblotting.

cGAS = target: T1, cGAS (Mus musculus, UniProt Q8C6L5); test: cGAS-mtDNA interaction immunoprecipitation assay (HA-cGAS MEFs); assay type: cell-based; settings: HA-cGAS reconstituted Mb21d1−/− MEFs
T1 construct: expressed in transfected cells
T1 sequence (Q8C6L5 whole entry): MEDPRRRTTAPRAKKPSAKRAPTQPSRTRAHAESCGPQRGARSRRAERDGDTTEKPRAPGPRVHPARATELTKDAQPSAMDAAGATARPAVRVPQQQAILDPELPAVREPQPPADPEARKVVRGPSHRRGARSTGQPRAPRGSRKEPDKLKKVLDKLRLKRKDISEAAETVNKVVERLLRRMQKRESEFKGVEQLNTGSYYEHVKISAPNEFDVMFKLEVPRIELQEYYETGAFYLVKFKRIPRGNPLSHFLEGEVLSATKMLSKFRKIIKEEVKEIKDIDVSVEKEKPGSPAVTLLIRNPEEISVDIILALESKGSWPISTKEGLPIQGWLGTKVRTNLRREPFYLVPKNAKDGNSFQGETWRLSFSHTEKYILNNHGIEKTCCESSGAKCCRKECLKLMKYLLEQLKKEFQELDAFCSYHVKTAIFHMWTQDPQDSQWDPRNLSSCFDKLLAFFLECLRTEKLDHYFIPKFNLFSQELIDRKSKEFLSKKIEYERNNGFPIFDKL
Text: Immortalized cGAS^−/− mouse embryonic fibroblasts (MEF) reconstituted with HA-tagged mouse cGAS (HA-cGAS) were described earlier^28. Interaction between mtDNA and cGAS was monitored using Express Chromatin Immunoprecipitation Kit (Active Motif, CHIP-IT® Express, cat #53008). Briefly mock, Alu RNA, poly I: C or plasmid DNA (pUC19) transfected HA-cGAS reconstituted cGAS^−/− MEFs were fixed with 1% formaldehyde per manufacturer's instructions. The cells were then lysed by sonication in the shearing buffer, centrifuged for 10 min at 18,000 g in a 4° C. microfuge. The supernatant containing the cell lysate was collected and cGAS was immunoprecipitated from each sample using anti-HA tag antibody (Abcam, cat #ab9110). DNA in the IP was eluted, reverse crosslinked and purified using Chromatin IP DNA Purification Kit (Active Motif, cat #58002). Purified DNA was analyzed by qPCR using mouse mtDNA specific primer pairs.

RPE [2] = test: RPE flat mount annexin V/PI staining in mice; settings: Alu RNA-treated Gsdmd−/− mice
RPE [3] = test: Alu-induced RPE degeneration in mice (subretinal injection; fundus photography, ZO-1 flat mounts); assay type: in vivo, mouse; settings: Gsdmd−/− mice
Procedure: Alu-mediated RPE degeneration was induced by exposing mice to Alu RNA as previously described^14-18. Seven days later, RPE health was assessed by fundus photography and immunofluorescence staining of zonula occludens-1 (ZO-1) on RPE flat mounts (whole mount of posterior eye cup containing RPE and choroid layers). Mouse RPE and choroid flat mounts were fixed with 4% paraformaldehyde or 100% methanol, stained with rabbit polyclonal antibodies against mouse ZO-1 (1:100, Invitrogen), and visualized with Alexa-594 (Invitrogen). All images were obtained by microscopy (model SP-5, Leica; or Axio Observer Z1, Zeiss). Imaging was performed by an operator masked to the group assignments.
Binary Assignment: Healthy RPE cells form a polygonal tessellation with a principally hexagonal “honeycomb” formation. RPE degeneration was assessed as a disruption of this uniformity of this polygonal sheet. Thus, RPE health was assessed as the presence or absence of morphological disruption in RPE flat mounts by two independent raters who were masked to the group assignments. […] Inter-rater reliability was measured by agreement on assignments, Pearson coefficient of determination, and Fleiss κ. […]
Cellular Morphometry: Quantifying cellular morphometry for hexagonally packed cells was performed in semi-automated fashion by three masked graders by adapting our previous analysis of corneal endothelial cell density^19. […]

O=c1[nH]c(=O)c2[nH]c([O-])nc2[nH]1.[Na+] [MSU, monosodium urate]
IL-18 secretion (IL-18): unaffected

NCC(=O)O [glycine]
effect on Alu RNA-induced RPE degeneration (RPE [1]): neither necrostatin-1, an inhibitor of primary necrosis^39, nor glycine, an inhibitor of pyroptosis^40, blocks

CN1C(=O)C(Cc2c[nH]c3ccccc23)NC1=S (stereo not shown) [necrostatin-1]
effect on Alu RNA-induced RPE degeneration (RPE [1]): neither necrostatin-1, an inhibitor of primary necrosis^39, nor glycine, an inhibitor of pyroptosis^40, blocks

cGAS shRNA: shRNA against cGAS, Sigma-Aldrich TRCN0000150010, SEQ ID NO: 15 (guide CCGGCCTGCTGTAACACTTCTTATTCTCGAGAATAAGAAGTGTTACAGCAGGTTTTTTG; listed as Homo sapiens)
effect on Alu RNA-induced activation of caspase-4 (p30 subunit) (caspase-4): suppressed | effect on DICER1 AS-induced IFNB mRNA (IFNB mRNA): markedly depressed | effect on Alu RNA-induced phosphorylation of STAT2 (STAT2): suppressed | effect on Alu RNA-induced activation of caspase-1 (p20 subunit) (caspase-1): suppressed

poly(I:C)
enrichment of mtDNA in cGAS immunoprecipitate (cGAS): not

recIL-18: recombinant mature IL-18 (MBL Cat #B002-5)
annexin-V / PI staining of RPE flat mounts (RPE [2]): numerous annexin-V^+ PI^− cells | resistance to Alu RNA-induced RPE degeneration (RPE [3]): overcome
